Data from patent EP0365763A1, “Antiproliferative cyclic compounds” (priority 1988, dated 1990).
Read-outs that look alike come from different tables or passages of the source.

Tests used:
[1] = molecular target: E.coli thymidylate synthase (TS) (Escherichia coli, UniProt P0A884); assay: Thymidylate synthase inhibition constants against 5,10-methylene-tetrahydrofolate; format: biochemical
Procedure: (§1) Determination of Inhibition Constants Against 5,10-Methylene-Tetrahydrofolate
(§2) Thymidylate synthase inhibition constants K₁ have been determined by the following method. All assays were run at 25°C and initiated by the addition of thymidylate synthase ("TS"). […] All reaction mixtures contained 50 mM Tris at pH 7.8 (the final pH of the reaction was 7.6), 10 mM DTT (dithiothreitol), 1 mM EDTA (ethylenediaminetetraacetic acid), 25 mM MgCl₂, 15 mM H₂CO (formaldehyde) and 25 microM dUMP. When human or Leishmania TS was assayed, 100 micrograms/ml of BSA (bovine serum albumin) was present in the reactions. […] Charcoal was used to remove unreacted dUMP from the tritium release reaction mixtures and the resultant water was counted to determine the extent of reaction.

[2] = molecular target: Human thymidylate synthase (TS) (Homo sapiens, UniProt P04818); assay: as above; format: biochemical
Human thymidylate synthase (TS), sequence (P04818 whole entry): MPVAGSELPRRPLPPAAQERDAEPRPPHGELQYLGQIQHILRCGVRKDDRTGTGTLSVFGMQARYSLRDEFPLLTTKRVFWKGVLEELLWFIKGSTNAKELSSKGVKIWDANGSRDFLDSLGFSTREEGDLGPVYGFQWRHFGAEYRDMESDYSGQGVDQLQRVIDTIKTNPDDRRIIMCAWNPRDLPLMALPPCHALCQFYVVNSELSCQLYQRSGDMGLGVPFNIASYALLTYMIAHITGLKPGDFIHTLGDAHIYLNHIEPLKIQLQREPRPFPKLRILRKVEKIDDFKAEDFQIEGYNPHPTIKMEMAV
Procedure: as §1
Thymidylate synthase inhibition constants K₁ have been determined by the following method. All assays were run at 25°C and initiated by the addition of thymidylate synthase ("TS"). […] All reaction mixtures contained 50 mM Tris at pH 7.8 (the final pH of the reaction was 7.6), 10 mM DTT (dithiothreitol), 1 mM EDTA (ethylenediaminetetraacetic acid), 25 mM MgCl₂, 15 mM H₂CO (formaldehyde) and 25 microM dUMP. When human or Leishmania TS was assayed, 100 micrograms/ml of BSA (bovine serum albumin) was present in the reactions.

[3] = molecular target: L. major thymidylate synthase (TS) (Leishmania major, UniProt P07382); assay: biochemical
L. major thymidylate synthase (TS), sequence (P07382 whole entry): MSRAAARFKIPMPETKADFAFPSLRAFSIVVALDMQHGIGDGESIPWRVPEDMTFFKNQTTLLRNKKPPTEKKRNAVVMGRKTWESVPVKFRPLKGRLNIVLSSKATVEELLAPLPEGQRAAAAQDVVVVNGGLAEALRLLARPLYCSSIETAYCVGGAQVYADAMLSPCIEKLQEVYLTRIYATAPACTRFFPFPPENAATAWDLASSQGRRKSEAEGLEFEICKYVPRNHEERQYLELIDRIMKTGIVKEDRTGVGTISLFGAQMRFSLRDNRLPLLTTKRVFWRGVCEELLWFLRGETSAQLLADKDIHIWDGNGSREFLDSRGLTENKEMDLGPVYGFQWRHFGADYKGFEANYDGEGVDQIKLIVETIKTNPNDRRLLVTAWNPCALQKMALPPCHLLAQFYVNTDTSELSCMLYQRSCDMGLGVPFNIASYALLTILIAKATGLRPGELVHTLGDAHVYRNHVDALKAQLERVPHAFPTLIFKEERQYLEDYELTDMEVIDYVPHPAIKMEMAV
Procedure: as §1, §2

[4] = tested on: CCRF-CEM, a human lymphoblastic leukemia line of T-cell origin (ATCC CCL 119); assay: Cellular growth in culture, MTT-tetrazolium reduction assay; format: cell-based; conditions: for IC50: Homo sapiens, CCRF-CEM, 120 h, read-out: IC50 FOR CELLS IN CULTURE CCRF-CEM; for inhibition at this concentration, CCRF-CEM: at the highest concentration tested, 5 days
Procedure: (§3) Cellular growth in the presence of the compounds in question was assessed using two cell lines, the Ll2l0 murine leukemia (ATCC CCL 219) and CCRF-CEM, a human lymphoblastic leukemia line of T-cell origin (ATCC CCL 119). Both lines were maintained in RPMI 1640 medium containing 5% heat-inactivated fetal bovine serum without antibiotics.
(§4) IC₅₀ values were determined in 150 microliter microcultures each containing 1500 (Ll2l0) or 4000 (CCRF-CEM) cells established in 96 well plates in growth medium supplemented with 50 IU/ml penicillin and 50 mcg/ml streptomycin. Growth was measured over 3 days (Ll2l0) or 5 days (CCRF-CEM) of continuous exposure to varying concentrations of each test compound added 4 h. after initial cell plating by the MTT-tetrazolium reduction assay of Mosmann (T. J. Immunol. Meth. 65, 55-63 (1983)) modified according to Alley et al. (Cancer Res. 48 589-601 (1988)). Water insoluble derivatives were dissolved in DMSO and diluted to a final concentration of 0.5% solvent in cell cultures.

[5] = tested on: L1210 murine leukemia (ATCC CCL 219); assay: as above; format: cell-based; conditions: for IC50: Mus musculus, L1210, 72 h, read-out: IC50 FOR CELLS IN CULTURE L1210
Procedure: as §3, §4

[6] = molecular target: C.albicans thymidylate synthase (TS) (Candida albicans, UniProt P12461); assay: Thymidylate synthase inhibition constants against 5,10-methylene-tetrahydrofolate; format: biochemical
C.albicans thymidylate synthase (TS), sequence (P12461 whole entry): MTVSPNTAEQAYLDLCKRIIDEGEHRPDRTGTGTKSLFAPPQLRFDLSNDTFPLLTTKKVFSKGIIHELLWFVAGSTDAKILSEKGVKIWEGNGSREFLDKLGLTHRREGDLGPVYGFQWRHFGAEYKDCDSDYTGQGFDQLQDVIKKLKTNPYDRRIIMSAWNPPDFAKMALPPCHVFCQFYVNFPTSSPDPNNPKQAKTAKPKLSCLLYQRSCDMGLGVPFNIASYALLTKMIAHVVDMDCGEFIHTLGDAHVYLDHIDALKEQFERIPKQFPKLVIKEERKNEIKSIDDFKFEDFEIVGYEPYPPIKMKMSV
Procedure: as §1, §2

murine L1210 TS = molecular target: T1, murine L1210 TS (Mus musculus, UniProt P07607); conditions: relative to 10-propargyl-5,8-dideazafolic acid; cited from earlier work
T1 construct: host or cells: L1210
T1 sequence (P07607 whole entry): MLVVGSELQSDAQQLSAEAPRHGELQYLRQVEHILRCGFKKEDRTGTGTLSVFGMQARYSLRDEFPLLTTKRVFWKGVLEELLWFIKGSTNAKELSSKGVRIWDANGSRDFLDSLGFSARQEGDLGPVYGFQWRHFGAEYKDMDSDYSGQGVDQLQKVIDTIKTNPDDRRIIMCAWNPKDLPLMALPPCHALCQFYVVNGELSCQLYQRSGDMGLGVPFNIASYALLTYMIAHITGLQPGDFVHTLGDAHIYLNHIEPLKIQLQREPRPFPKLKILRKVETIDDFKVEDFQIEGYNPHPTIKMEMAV

[7] = 5 days of continuous exposure, MTT
[8] = 3 days of continuous exposure, MTT
[9] = 25°C, pH 7.6, 25 microM dUMP, THF 5 to 150 microM, 100 micrograms/ml BSA, read-out: K1TS Human
[10] = 25°C, pH 7.6, 25 microM dUMP, THF 5 to 150 microM, read-out: K1TS C.albicans

E.coli thymidylate synthase (TS), sequence (P0A884 whole entry): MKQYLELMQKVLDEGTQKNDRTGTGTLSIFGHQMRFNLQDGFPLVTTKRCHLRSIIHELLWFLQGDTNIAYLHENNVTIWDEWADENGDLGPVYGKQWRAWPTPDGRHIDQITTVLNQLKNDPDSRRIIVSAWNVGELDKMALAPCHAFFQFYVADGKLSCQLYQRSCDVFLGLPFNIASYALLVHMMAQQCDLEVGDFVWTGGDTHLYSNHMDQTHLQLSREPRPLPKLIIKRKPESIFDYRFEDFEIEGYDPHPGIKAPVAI

Molecule	Ki [1] [µM]	IC50 [4, 7] [µM]	IC50 [5, 8] [µM]	Ki [2, 9] [µM]	also measured
C#CCN(Cc1ccc2nc(C)[nH]c(=O)c2c1)c1ccc(C#N)c(C(F)(F)F)c1 [3-CF3,4-CN]	0.036 ± 0.007	> 2.8	> 2.8		Ki [2]: 0.081 ± 0.057 µM; Ki [3]: 0.03 µM; inhibition at this concentration, CCRF-CEM [4]: no inhibition; inhibition at this concentration, L1210 ([5]; at the highest concentration tested, printed in the same cell or footnote, 3 days): 15%
C#CCN(Cc1ccc2nc(C)nc(O)c2c1)c1ccc([N+](=O)[O-])c(C(F)(F)F)c1 [3-CF3,4-NO2]	0.078 ± 0.076		> 5	0.2 ± 0.25	
C#CCN(Cc1ccc2nc(C)nc(O)c2c1)c1ccc(S(N)(=O)=O)c(C(F)(F)F)c1 [3-CF3,4-SO2NH2]	0.19 ± 0.12			0.58 ± 0.74	Ki [6, 10]: 1.9 ± 0.6 µM
C#CCN(Cc1ccc2nc(C)nc(O)c2c1)c1ccc(S(=O)(=O)NCC(=O)O)c(C(F)(F)F)c1 [3-CF3,4-SO2NHCH2COOH]	0.015 ± 0.003				Ki ([3]; 25°C, pH 7.6, 25 microM dUMP, THF 5 to 150 microM, 100 micrograms/ml BSA, read-out: K1TS L. major): 0.013 µM
C#CCN(Cc1ccc2nc(C)nc(O)c2c1)c1cccc(C(C)O)c1 (stereo not shown) [3-CH(OH)CH3]	11.4 ± 9.8	> 50	> 50	9.6 ± 6.9	
C#CCN(Cc1ccc2nc(C)nc(O)c2c1)c1ccc(C#N)c(Cl)c1 [3-Cl, 4-CN]	0.091 ± 0.052	> 6.8	4.5		Ki [6]: 0.28 ± 0.19 µM; Ki [2]: 0.087 ± 0.001 µM
C#CCN(Cc1ccc2nc(C)nc(O)c2c1)c1cccc(C#C)c1 [3-C≡CH]	32.9 ± 14.1	> 2.4	> 2.4		
C#CCN(Cc1ccc2nc(C)nc(O)c2c1)c1cccc(Br)c1 [Compound 3-Br]	5.5 ± 1.3	> 5.5	> 5.5	3.6 ± 2.6	
C#CCN(Cc1ccc2nc(C)nc(O)c2c1)c1cccc(CC)c1 [Compound 3-C2H5]	24.5 ± 15.7	> 5	> 5	23.9 ± 20.8	
C#CCN(Cc1ccc2nc(C)[nH]c(=O)c2c1)c1cccc(C(F)(F)F)c1 [Compound 3-CF3]		> 4.3	> 4.3		
C#CCN(Cc1ccc2nc(C)nc(O)c2c1)c1cccc(CO)c1 [Compound 3-CH2OH]	6.7 ± 5.4	> 55	48	1.2 ± 0.4	
C#CCN(Cc1ccc2nc(C)nc(O)c2c1)c1cccc(C)c1 [Compound 3-CH3]	16.3 ± 9.8	> 5	> 5	10.2 ± 10.2	Ki [6, 10]: 7.7 µM
C#CCN(Cc1ccc2nc(C)nc(O)c2c1)c1cccc(I)c1 [Compound 3-I]	49 ± 42.3	> 5.3	> 5.3	4.7 ± 3.7	Ki [6, 10]: 15.5 ± 5.5 µM
C#CCN(Cc1ccc2nc(C)nc(O)c2c1)c1ccc(C#N)cc1 [Compound 4-CN]	0.52 ± 0.46	> 5	> 5	0.54 ± 0.74	
C#CCN(Cc1ccc2nc(C)nc(O)c2c1)c1ccc(C(=O)c2ccccc2)cc1 [Compound 4-COPh]	0.5 ± 0.11	> 8.5	6.8	0.7 ± 0.19	
C#CCN(Cc1ccc2nc(C)nc(O)c2c1)c1ccc(Cl)cc1 [Compound 4-Cl]	5.9 ± 1.8	> 4	> 4	5.4	Ki [6, 10]: 10.6 ± 4.7 µM
C#CCN(Cc1ccc2nc(C)nc(O)c2c1)c1ccc([N+](=O)[O-])cc1 [Compound 4-NO2]	0.12 ± 0.07	> 4.8	4.5	0.25 ± 0.21	Ki [6, 10]: 1.5 ± 1.1 µM
C#CCN(Cc1ccc2nc(C)[nH]c(=O)c2c1)c1ccc(S(N)(=O)=O)cc1 [Compound 4-SO2NH2]	0.25 ± 0.15	> 25	20	0.16 ± 0.12	Ki [6, 10]: 1 µM; inhibition at this concentration, CCRF-CEM [4]: no inhibition
C#CCN(Cc1ccc2nc(C)[nH]c(=O)c2c1)c1ccc(S(=O)(=O)c2ccccc2)cc1 [Compound 4-SO2Ph]					IC50 [4]: 2.5 µM; IC50 [5]: 1 µM
C#CCN(Cc1ccc2nc(C)[nH]c(=O)c2c1)c1ccc(S(=O)(=O)C(F)(F)F)cc1 [Compound A, N-((3,4-Dihydro-2-methyl-4-oxo-6-quinazolinyl)methyl)-N-(prop-2-ynyl)-4-trifluoromethanesulfonylaniline]	0.015	> 2.75	> 2.75	0.075 ± 0.035	inhibition at this concentration, CCRF-CEM [4]: no inhibition
C#CCN(Cc1ccc2nc(C)[nH]c(=O)c2c1)c1ccc(S(=O)(=O)c2ccccc2)c(C(F)(F)F)c1 [Compound B, N-((3,4-Dihydro-2-methyl-4-oxo-6-quinazolinyl)methyl)-4-(phenylsulfonyl)-N-(prop-2-ynyl)-3-(trifluoromethyl)aniline]		6	3		
C#CCN(Cc1ccc2nc(-c3ccccc3)[nH]c(=O)c2c1)c1ccc(Cl)cc1 [Compound C]	42.6 ± 23.1				
C#CCN(Cc1ccc2nc(C)nc(S)c2c1)c1cccc(C(F)(F)F)c1 [Compound D, N-((3,4-dihydro-2-methyl-4-thio-6-quinazolinyl)methyl)-N-(prop-2-ynyl)-3-trifluoromethylaniline]	3.3 ± 1.4			17.5 ± 11	
C#CCN(Cc1cccc2c(NC=O)coc12)c1ccc([N+](=O)[O-])cc1 [Compound E, N-((3-Formylamino-7-benzofuranyl)methyl)-N-(prop-2-ynyl)-4-nitroaniline]	70.9 ± 1.8				
C#CCN(Cc1ccc2nc(C)[nH]c(=O)c2c1)c1ccccc1 [—]		> 10	> 10		
tetraglutamate of 10-propargyl-5,8-dideazafolic acid					binds more tightly to murine L1210 TS than the monoglutamate parent compound (murine L1210 TS): 119 fold
